According to PMC10997755, “Discovery of a small-molecule inhibitor that traps Polθ on DNA and synergizes with PARP inhibitors” (Nature Communications, 2024):
Values joined by “and” are separate entries in the source; they are usually repeats but may differ in a detail not shown here. Equal values may be shown once.

Columns and labels:
Polθ-pol = target: T1, Polθ-pol (Homo sapiens, UniProt O75417); test: Cy5 fluorescence Polθ-pol DNA synthesis (strand displacement) IC50 assay; assay type: biochemical; details: Polθ-pol DNA synthesis, Cy5 fluorescence
T1 construct: purified recombinant human Polθ-pol (comprising amino acid residues 1792–2590); made in house
T1 sequence (O75417 1792-2590): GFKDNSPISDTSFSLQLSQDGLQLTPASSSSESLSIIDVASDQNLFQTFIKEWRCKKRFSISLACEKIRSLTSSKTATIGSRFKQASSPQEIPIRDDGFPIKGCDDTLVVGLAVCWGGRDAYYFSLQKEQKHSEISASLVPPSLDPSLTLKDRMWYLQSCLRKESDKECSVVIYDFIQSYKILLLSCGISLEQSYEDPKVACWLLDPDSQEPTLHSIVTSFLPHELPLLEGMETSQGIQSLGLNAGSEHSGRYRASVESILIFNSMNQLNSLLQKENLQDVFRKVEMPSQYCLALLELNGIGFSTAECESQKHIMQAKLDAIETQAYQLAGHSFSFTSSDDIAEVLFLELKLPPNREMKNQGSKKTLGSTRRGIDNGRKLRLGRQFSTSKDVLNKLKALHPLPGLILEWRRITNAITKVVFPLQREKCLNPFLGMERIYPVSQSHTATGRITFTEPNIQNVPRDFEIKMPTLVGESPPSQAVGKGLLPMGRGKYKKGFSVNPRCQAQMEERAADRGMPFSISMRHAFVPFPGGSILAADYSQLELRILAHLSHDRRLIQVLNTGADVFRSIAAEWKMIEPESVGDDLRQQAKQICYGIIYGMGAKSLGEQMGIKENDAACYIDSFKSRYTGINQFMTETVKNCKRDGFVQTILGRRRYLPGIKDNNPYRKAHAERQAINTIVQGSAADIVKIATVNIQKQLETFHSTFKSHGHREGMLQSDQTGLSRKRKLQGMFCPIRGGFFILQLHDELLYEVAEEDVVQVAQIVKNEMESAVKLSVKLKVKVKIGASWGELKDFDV
Procedure, shortened: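 Recombinant human Polθ-pol (aa 1792–2590, 5 nM) extends 60 nM Cy5/quencher primer-template with 50 uM dNTPs in 25 mM Tris pH 7.8, 10 mM MgCl2, 2.5% DMSO at 37 °C. After 18 min, stopped with 20 mM EDTA; Cy5 fluorescence read, 7-point series in triplicate, inhibition from the mean.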

DLD1 Parental cells = test: Clonogenic assay; assay type: cell-based; details: for Normalized colonies (0 micro M = 100): per experiment
Procedure, shortened: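 Colony formation by BRCA-deficient, PALB2-mutant and wild-type cells (300–1000 cells/well) and MEFs (300 cells/well) over 10–12 days, medium changed every 2 days. Colonies fixed, stained with 0.5% crystal violet and counted; IC50 from 3 or more independent experiments.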

DLD1 BRCA2 -/- cells = test: Clonogenic assay; assay type: cell-based; details: for Average number of colonies counted / Normalized colonies (0 micro M = 100): per experiment
Procedure, shortened: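 Cells seeded at low density (300–1000 per well, by plate size and genotype), medium changed every 2 days, colonies grown 10–12 days. Fixed in water:ethanol:acetic acid, stained with 0.5% crystal violet, then counted; IC50 from ≥3 independent experiments, mean ± SEM.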

LogP = assay type: physicochemical; details: method not stated

CN(C(=O)Oc1c(N2CCN(CCO)C2=O)cc(C(F)(F)F)cc1C(F)(F)F)c1ccc(F)cc1 [RTx-161]
IC50 (Polθ-pol): 4.1 nM and 4 to 6 nM
effect in BRCA2-WT cells (DLD1 Parental cells; DLD1, colony survival): little to no effect
Normalized colonies, pooled Average of 3 experiments (DLD1 Parental cells; RTX-161 0.185 micro M): 97.5686%
Normalized colonies (0 micro M = 100) (DLD1 Parental cells; RTX-161 0.185 micro M): 97.878% and 98.6301% and 96.1977%
Normalized colonies, pooled Average of 3 experiments (DLD1 Parental cells; RTX-161 0.555 micro M): 95.8582%
Normalized colonies (0 micro M = 100) (DLD1 Parental cells; RTX-161 0.555 micro M): 95.8175% and 96.5517% and 95.2055%
Normalized colonies, pooled Average of 3 experiments (DLD1 Parental cells; RTX-161 1.67 micro M): 94.2875%
Normalized colonies (0 micro M = 100) (DLD1 Parental cells; RTX-161 1.67 micro M): 93.5361% and 95.4907% and 93.8356%
Normalized colonies, pooled Average of 3 experiments (DLD1 Parental cells; RTX-161 5 micro M): 93.9179%
Normalized colonies (0 micro M = 100) (DLD1 Parental cells; RTX-161 5 micro M): 93.1559% and 96.817% and 91.7808%
Normalized colonies, pooled Average of 3 experiments (DLD1 Parental cells; RTX-161 15 micro M): 93.9599%
Normalized colonies (0 micro M = 100) (DLD1 Parental cells; RTX-161 15 micro M): 90.8745% and 94.4297% and 96.5753%
IC50 (DLD1 BRCA2 -/- cells; Homo sapiens, DLD-1, read-out: IC50 clonogenic survival): ~1000 nM
Normalized colonies, pooled Average of 3 experiments (DLD1 BRCA2 -/- cells; RTX-161 0.185 micro M): 84.318%
Average number of colonies counted (DLD1 BRCA2 -/- cells; RTX-161 0.185 micro M): 67.3333 and 120 and 63.3333
Normalized colonies (0 micro M = 100) (DLD1 BRCA2 -/- cells; RTX-161 0.185 micro M): 74.5387% and 90.4523% and 87.963%
Normalized colonies, pooled Average of 3 experiments (DLD1 BRCA2 -/- cells; RTX-161 0.555 micro M): 72.4221%
Average number of colonies counted (DLD1 BRCA2 -/- cells; RTX-161 0.555 micro M): 58.6667 and 97.6667 and 56.6667
Normalized colonies (0 micro M = 100) (DLD1 BRCA2 -/- cells; RTX-161 0.555 micro M): 64.9446% and 73.6181% and 78.7037%
Normalized colonies, pooled Average of 3 experiments (DLD1 BRCA2 -/- cells; RTX-161 1.67 micro M): 40.9897%
Average number of colonies counted (DLD1 BRCA2 -/- cells; RTX-161 1.67 micro M): 28.3333 and 49.6667 and 39
Normalized colonies (0 micro M = 100) (DLD1 BRCA2 -/- cells; RTX-161 1.67 micro M): 31.3653% and 37.4372% and 54.1667%
Normalized colonies, pooled Average of 3 experiments (DLD1 BRCA2 -/- cells; RTX-161 5 micro M): 19.5991%
Average number of colonies counted (DLD1 BRCA2 -/- cells; RTX-161 5 micro M): 11.6667 and 20.3333 and 22
Normalized colonies, pooled Average of 3 experiments (DLD1 BRCA2 -/- cells; RTX-161 15 micro M): 11.8019%
selective killing / synthetic lethality in BRCA2-null DLD1 cells (DLD1 BRCA2 -/- cells; colony survival, versus BRCA2-WT): selective killing
logP (LogP): 3.6
